In PubChem BioAssay (NCI):
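Growth conditions: 96-well plates. Treatment: test compound, 48 hours, 5 concentrations. Analysis: linear interpolation between bracketing concentrations; unreached endpoints set to highest concentration. TGI marks complete inhibition of growth.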

Experiments:
Experiment in all cases: NCI-60 cell line screen, 48 h
TK-10 renal = test system: TK-10 renal
SK-OV-3 ovarian = test system: SK-OV-3 ovarian
A549 NSCLC = test system: A549 NSCLC
SK-MEL-28 melanoma = test system: SK-MEL-28 melanoma
RPMI-8226 leukemia = test system: RPMI-8226 leukemia
HL-60(TB) leukemia = test system: HL-60(TB) leukemia
HCC-2998 colon = test system: HCC-2998 colon
LOX IMVI melanoma = test system: LOX IMVI melanoma
NCI/ADR-RES ovarian = test system: NCI/ADR-RES ovarian
SR leukemia = test system: SR leukemia
PC-3 prostate = test system: PC-3 prostate
OVCAR-3 ovarian = test system: OVCAR-3 ovarian
SNB-75 CNS = test system: SNB-75 CNS
SN12C renal = test system: SN12C renal
OVCAR-4 ovarian = test system: OVCAR-4 ovarian
MDA-MB-435 = test system: MDA-MB-435
HCT-15 colon = test system: HCT-15 colon
SF-268 CNS = test system: SF-268 CNS
HCT-116 colon = test system: HCT-116 colon
UACC-62 melanoma = test system: UACC-62 melanoma
NCI-H23 lung = test system: NCI-H23 lung
SW-620 colon = test system: SW-620 colon
A498 renal = test system: A498 renal
CAKI-1 renal = test system: CAKI-1 renal
MDA-MB-231 breast = test system: MDA-MB-231 breast
CCRF-CEM leukemia = test system: CCRF-CEM leukemia
BT-549 breast = test system: BT-549 breast
EKVX NSCLC = test system: EKVX NSCLC
ACHN renal = test system: ACHN renal
M14 melanoma = test system: M14 melanoma
NCI-H226 lung = test system: NCI-H226 lung
MALME-3M melanoma = test system: MALME-3M melanoma
MCF7 breast = test system: MCF7 breast
SK-MEL-2 melanoma = test system: SK-MEL-2 melanoma
786-0 renal = test system: 786-0 renal
SK-MEL-5 melanoma = test system: SK-MEL-5 melanoma
NCI-H522 lung = test system: NCI-H522 lung
OVCAR-5 ovarian = test system: OVCAR-5 ovarian
U251 CNS = test system: U251 CNS
KM12 colon = test system: KM12 colon
UACC-257 melanoma = test system: UACC-257 melanoma
OVCAR-8 ovarian = test system: OVCAR-8 ovarian
SF-295 CNS = test system: SF-295 CNS
IGROV1 ovarian = test system: IGROV1 ovarian
HOP-62 NSCLC = test system: HOP-62 NSCLC
HOP-92 NSCLC = test system: HOP-92 NSCLC
HS 578T breast = test system: HS 578T breast
HT29 colon = test system: HT29 colon
SF-539 CNS = test system: SF-539 CNS
NCI-H460 lung = test system: NCI-H460 lung
T-47D breast = test system: T-47D breast
UO-31 renal = test system: UO-31 renal
RXF 393 renal = test system: RXF 393 renal

Measured: TGI

CCOc1ccc(NC(=O)/C(=N\N)C(C(=O)OC)c2nc3ccc(Cl)cc3[nH]c2=O)cc1 (stereo not drawn)
> 100 µM: all assays above
